Reference: patent US12037372B2, “Bioactive peptides derived from snakes” (Universiteit Leiden, priority 2018, dated 2024)
“Also recorded” adds a separate entry of the source.

What was measured:
[1] = tested on: multidrug resistant strain Acinetobacter baumannii RUH875; assay: Bactericidal activity of peptides (in vitro killing assay); assay type: cell-based; details: for LC99.9, bactericidal activity: MDR A. baumannii, PBS with 50% plasma
Procedure: (§1) Enterococcus faecium (LUH 15122), Staphylococcus aureus (LUH 14616), Klebsiella pneumoniae (LUH 15104), Acinetobacter baumannii (RUH 875), Pseudomonas aeruginosa (LUH 15103), Enterobacter cloacae (LUH 15114) and Escherichia coli (LUH 15117) were used. Prior to experimentation the bacteria were taken from a glycerol stock stored at −80° C. and cultured overnight on sheep blood agar plates at 37° C. On the day of experimentation the bacteria were cultured in tryptic soy broth (TSB; Oxoid) for 2.5 hours at 37° C. and 200 rpm to a mid-logarithmic phase. The bacterial suspension was washed in phosphate buffered saline (PBS; pH 7.4), centrifuged for 10 minutes at 3000 rpm, and resuspended in PBS to the desired concentration, as determined by measuring the absorbance at 600 nm.
(§2) As a control the bacteria were also incubated in PBS with either 50% plasma or 50% urine without peptide. The plate was incubated for 2 hours at 37° C. and 200 rpm. After incubation the number of viable bacteria was determined microbiologically by plating the samples and a 10-times dilution series in PBS on diagnostic sensitivity test agar plates (DST; Sigma). The DST plates were incubated overnight at 37° C. Results were expressed as lethal concentration 99.9, or LC99.9, which represents the lowest concentration of peptide that killed 99.9% of the bacteria within 2 hours of incubation.

[2] = tested on: colistin-resistant E. coli (LUH 15117); assay: as above; assay type: cell-based, Escherichia coli; details: PBS with 50% plasma, 2 hours
Procedure: as §1, §2

[3] = tested on: MDR K. pneumoniae (LUH 15104); assay: as above; assay type: cell-based, Klebsiella pneumoniae; details: PBS with 50% plasma, 2 hours
Procedure: as §1, §2

[4] = tested on: MDR E. cloacae (LUH 15114); assay: as above; assay type: cell-based, Enterobacter cloacae; details: PBS with 50% plasma, 2 hours
Procedure: as §1, §2

E. faecium (LUH 15122) = assay: as above; assay type: cell-based, Enterococcus faecium; details: PBS with 50% plasma, 2 hours
Procedure: as §1, §2

S. aureus LUH 14616 = assay: Resistance development assay; assay type: cell-based, Staphylococcus aureus; details: 20 passages
Procedure: (§3) A bacterial culture was prepared and washed as described before. The bacterial culture was diluted to a concentration of 5×10^6 CFU/ml in modified RPMI 1640 comprising 20 mM HEPES, L-glutamine and without sodium bicarbonate (RPMImod; Sigma-Aldrich). In a polypropylene 96-well plate, a two-fold peptide dilution series was made in RPMImod with concentrations ranging from 0.94 μM to 240 μM. […] A negative control of RPMImod without peptide or an antibiotic was included for both dilution series. A contamination control was included containing only RPMImod. To all the wells, except the contamination control wells, 5 μl of the bacterial suspension were added. The plate was sealed and incubated overnight at 37° C. and 200 rpm. After incubation the MIC was determined as the well with the lowest peptide concentration and no bacterial growth. The well with half the MIC was diluted 2.5-fold with RPMImod and transferred to an Eppendorf tube. […] The results were expressed as the fold increase of the MIC compared to the MIC at the first passage.

A. Baumannii [5] = assay: Resistance development assay; assay type: cell-based, Acinetobacter baumannii; details: 20 passages
Procedure: as §3

E. coli = assay: Resistance development assay; assay type: cell-based, Escherichia coli; details: 20 passages
Procedure: as §3

[6] = tested on: 24-hour biofilm of A. baumannii RUH 875; assay: Biofilm breakdown assay; assay type: cell-based, Acinetobacter baumannii; details: 2-hour treatment
Procedure: To a polypropylene 96-well flat-bottom plate (Greiner) 50 μl of a bacterial suspension at a concentration of 1×10^7 CFU/ml in BM2 medium (Overhage et al., 2008) were added. A control comprising BM2 medium alone was included. The plate was sealed off with a seal (Costar) and incubated in a humidified environment for 24 hours at 37° C. Thereafter the wells were washed 2 times with PBS. […] The plate was sealed off and incubated for 2 hours at 37° C. and 200 rpm. For analysis the plate was sonicated (Ultrasoonbad BRANSONIC® m1800H-E; Boom b.v.) for 5 minutes to detach the biofilm bacteria. The number of viable bacteria in the sonicates was determined microbiologically by plating the samples and a 10-times dilution series on DST agar plates and incubating these overnight at 37° C. Results were expressed as the LC99.9.

A. Baumannii [7] = assay: Killing of A. baumannii in BM2 medium (control); assay type: cell-based, Acinetobacter baumannii; details: 0.8 μM peptide
Procedure: As a control, the ability of these peptides to kill A. baumannii in BM2 medium was assessed.

[8] = tested on: MRSA (S. aureus LUH 14616) on ex vivo human skin; assay: Ex vivo skin model; parameters: species or system Staphylococcus aureus; details: 10 μl peptide solution; 1 hour treatment
Source text: The donor skin was transported to the LUMC in RPMI 1640 medium (Gibco) supplemented with penicillin/streptomycin (Gibco). Skin samples were washed in PBS and left overnight in RPMI 1640 medium without antibiotics. On the day of the experiment the skin was again washed in PBS, then spread out and punches with a diameter of 8 mm diameter were made with a biopsy punch (Stiefel). The skin samples were dried with a cotton swab. A liquid dam was made with LC Block-Out Resin (Ultradent) on the edge of the skin samples to prevent liquids from dripping off. The liquid dam was solidified by 4 seconds exposure of UV light (Super 1200 led; ECO). The skin samples were placed on grids in a 12-well plate (Costar) filled underneath with medium comprising Ham F12, DMEM and FCS (Gibco). An S. aureus LUH 14616 bacterial suspension was cultured and washed as described before. The skin punches were inoculated with 5 μl of the bacterial suspension (1×10^8 CFU/ml) for one hour at 37° C. and 5% CO2. […] The infected skin was treated for 1 hour at 37° C. and 5% CO2 with 10 μl of the peptide solutions, including a control with 10 μl of PBS alone. Polypropylene tubes were filed with glass beads (1.7 mm diameter) and 1 ml of PBS. The liquid dam was removed from the skin after treatment. […] Results were expressed as the number of viable bacteria (CFU/ml) after treatment.

[9] = tested on: drug-sensitive strain Escherichia coli LUH15108; assay: Bactericidal activity of peptides (in vitro killing assay), alanine scan; assay type: cell-based; details: lowest concentration killing 99.9% of an inoculum of about one million bacteria, 50% (v/v) human plasma, within 2 hours
Procedure: The amino acids of the SP27 peptide were substituted at various positions with Alanine. The substituted peptides were tested on A. baumannii and E. coli bacterial strains for having antimicrobial activity. Furthermore, the substituted peptides were tested for their hemolytic activity as an indicator for their toxicity.

[10] = tested on: MDR S. aureus (LUH 14616), MRSA; assay: Bactericidal activity of peptides (in vitro killing assay); assay type: cell-based, Staphylococcus aureus; details: 50% v/v human plasma
Procedure: as §1, §2

[11] = tested on: lipopolysaccharide from E. coli J5 (LPS); assay: LPS neutralization by peptides (whole blood, IL-12p40 ELISA); assay type: cell-based, human; details: compared to the LPS control
Procedure: Heparinized blood collected from healthy human volunteers was diluted five times in RPMI 1640. Next, 195 μl of diluted blood were pipetted in to the wells of a 96-well cell culture plate. In another 96-well polypropylene V-bottom plate, 15 μl of peptide solution with final concentrations of 1 nM to 1000 nM were mixed with 15 μl of 500 ng/ml lipopolysaccharide from E. coli J5 (LPS; Sigma) for 30 minutes at 37° C. and 200 rpm. After incubation the mixtures were diluted five times with 120 μl of RPMI. From the diluted mixtures 5 μl were transferred to the wells of the plate containing the 195 μl of blood. The plate was incubated for 20 hours at 37° C. and 5% CO2. The plate was centrifuged for 5 minutes at 1200 rpm. The supernatants were stored as aliquots at −20° C. until analysis of the cytokine level by ELISA. The IL-12p40 sandwich ELISA from Invitrogen was used. ELISAs were performed according to manufacturer's instructions. Results were expressed as the concentration IL-12p40 in pg/ml.

[12] = tested on: persisters originating from matured, antibiotic-exposed, MRSA biofilms; assay: Activity against persisters; assay type: cell-based, Staphylococcus aureus
[13] = tested on: MDR P. aeruginosa (LUH 15103); assay: Bactericidal activity of peptides (in vitro killing assay); assay type: cell-based, Pseudomonas aeruginosa; details: 2-hour treatment, 50% v/v human plasma, median (range)
Procedure: as §1, §2

[14] = tested on: melanoma cells and other cancer cells; details: Wang et al.; cited from earlier work
melanoma = details: Wang et al.; cited from earlier work
MRSA = details: Cai et al., 2018; cited from earlier work
P. aeruginosa = details: Cai et al., 2018; cited from earlier work

Sequence | LC99.9, bactericidal activity ([1]; 2 hours) | LC99.9, bactericidal activity [2] | LC99.9, bactericidal activity [3] | LC99.9, bactericidal activity [4] | LC99.9, bactericidal activity (E. faecium (LUH 15122)) | resistance development: fold increase of the MIC (S. aureus LUH 14616) | resistance development: fold increase of the MIC (A. Baumannii [5]) | resistance development: fold increase of the MIC (E. coli) | peptide concentration with complete elimination of the biofilms [6] [µM] | reduction of viable bacteria (A. Baumannii [7]) [log] | peptide concentration killing 99.9% of the MRSA on ex vivo human skin [8] [µM] | also measured
KRFKKFFRKVKKGVHRYFKKNKFYIAATIPYYG [SP27] | submicromolar concentrations | submicromolar concentrations | submicromolar concentrations | submicromolar concentrations | low micromolar concentrations | remained constant for all 20 passages; also recorded: limited resistance | remained constant for all 20 passages | remained constant for all 20 passages | 51.2 | 2 | 204.8 | LC99.9 (μM) A. baumannii ([1]; Table 5, 50% (v/v) human plasma, 2 hours): 0.8 µM; LC99.9 (μM) A. baumannii ([1]; Table 6, 50% (v/v) human plasma, 2 hours): 0.8 µM; LC99.9 (μM) A. baumannii ([1]; lowest concentration killing 99.9% of an inoculum of about one million bacteria in 50% (v/v) human plasma within 2 hours, A. baumannii RUH875): 0.8 µM; LC99.9 (μM) A. baumannii ([1]; lowest concentration killing 99.9% of an inoculum of about one million bacteria, 50% (v/v) human plasma, within 2 hours, A. baumannii RUH875): 0.8 µM; LC99.9 (μM) A. baumannii ([1]; lowest concentration of the peptide that kills 99.9% of an inoculum of about one million bacteria in the presence of 50% (v/v) human plasma within 2 hours, Acinetobacter baumannii RUH875): 0.8 µM; LC99.9 (μM) E. coli [9]: 1.6 µM
KRFKKFFKKLKNNVKKRVKKFFRKPRVIGVTIPF [SP4] | submicromolar concentrations | submicromolar concentrations | submicromolar concentrations | submicromolar concentrations | low micromolar concentrations | remained constant for all 20 passages; also recorded: limited resistance | remained constant for all 20 passages | remained constant for all 20 passages | 51.2 | 2 | 102.4 | LC99.9 ([10]; Table 2, MDR S. aureus, concentration inducing 3 log reduction of viable bacteria): 3.2 µM; LPS neutralization (IL-12p40 production) ([11]; 100 nM peptide): 74%; LPS neutralization (IL-12p40 production) ([11]; 1000 nM peptide): 96%; activity against persisters [12]: highly effective
KRFKKFFRKLKKSVKKRAKEFFKKPRVIGVSIPF [SP5] | – | – | – | – | – | – | – | – | – | – | – | LC99.9 (μM) MRSA in 50% plasma ([10]; MDR S. aureus LUH 14616, 2-hour treatment, lowest concentration killing ≥99.9%, median (range)): 25.6 µM; LC99.9 (μM) MDR P. aeruginosa in 50% plasma [13]: 0.4 µM; effect on melanoma cells and other cancer cells in vitro [14]: inhibits; tumor load in melanoma-bearing mice (melanoma): reduces the tumor load
KRFQNFFRELEKKFREFFRVYRITIGATIRF [SP16] | – | – | – | – | – | – | – | – | – | – | – | bactericidal effect against MRSA (MRSA): no bactericidal effect; bactericidal effect against P. aeruginosa (P. aeruginosa): no bactericidal effect
